Measured values taken from ChEMBL document CHEMBL1201862, “PubChem BioAssay data set” (2004).
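Values below derive from 48-hour exposures of cells grown in 96-well plates, with endpoints linearly interpolated between the two concentrations bracketing the appropriate inhibition level. Abbreviation: GI50, concentration required for 50% inhibition of growth.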 Activity calls are given as the source filed them. Rule as the data show it: active = GI50 up to about 1.1 µM and inactive = higher.

How the values were obtained:
Assay in all cases: inhibition of tumour cell growth, NCI panel, 48 h
COLO 205 = tested on: COLO 205
EKVX = tested on: EKVX
HCT-15 = tested on: HCT-15
K562 = tested on: K562
KM12 = tested on: KM12
Malme-3M = tested on: Malme-3M
NCI-H23 = tested on: NCI-H23
OVCAR-3 = tested on: OVCAR-3
SF-268 = tested on: SF-268
SF-539 = tested on: SF-539
SK-MEL-2 = tested on: SK-MEL-2
A498 = tested on: A498
NCI-H460 = tested on: NCI-H460
RPMI-8226 = tested on: RPMI-8226
HL-60 = tested on: HL-60
NCI-H226 = tested on: NCI-H226
UACC-257 = tested on: UACC-257

Row | Compound | GI50 (COLO 205) | GI50 (EKVX) | GI50 (HCT-15) | GI50 (K562) | GI50 (KM12) | GI50 (Malme-3M) | GI50 (NCI-H23) | GI50 (OVCAR-3) | GI50 (SF-268) | GI50 (SF-539) | GI50 (SK-MEL-2) | GI50 (A498) | GI50 (NCI-H460) | GI50 (RPMI-8226) | GI50 (HL-60) | GI50 (NCI-H226) | GI50 (UACC-257)
1 | COc1cccc(/C=C(\NC(C)=O)c2nc3cc(Cl)ccc3[nH]2)c1 | > 100 µM (inactive) | > 100 µM (inactive) | > 100 µM | > 100 µM (inactive) | > 100 µM (inactive) | > 100 µM (inactive) | > 100 µM (inactive) | > 100 µM (inactive) | > 100 µM (inactive) | > 100 µM (inactive) | > 100 µM (inactive) |  |  |  |  |  | 
2 | Cc1ccc(-c2cc(-c3ccco3)c(C#N)c(=O)n2C2OC(OC(=O)c3ccccc3)C(OC(=O)c3ccccc3)C2OC(=O)c2ccccc2)cc1 (stereo not drawn) | > 10 µM (inactive) | > 100 µM (inactive) | > 100 µM | > 100 µM (inactive) | > 100 µM (inactive) | > 100 µM (inactive) |  | 39.2 µM (inactive) | 81.3 µM (inactive) | > 100 µM (inactive) | > 100 µM (inactive) | > 100 µM (inactive) | > 100 µM (inactive) | > 100 µM (inactive) |  |  | 
3 | COc1ccc([Se]c2ccc(OC)cc2OC)c(OC)c1 | 11.4 µM (inactive) |  |  | 10.5 µM (inactive) | 17.4 µM (inactive) | 14.9 µM (inactive) | 29.9 µM (inactive) | 32 µM (inactive) | 35.6 µM (inactive) | 22.6 µM (inactive) | 17.5 µM (inactive) | 18.7 µM (inactive) | 19.6 µM (inactive) | 20.7 µM (inactive) | 5.38 µM (inactive) | 20 µM (inactive) | 61.2 µM (inactive)
4 | O=C(Nc1cccc(Cc2cccc(NC(=O)c3ccccc3)c2)c1)c1ccccc1 | > 100 µM (inactive) | 23.3 µM (inactive) | 89.3 µM | > 100 µM (inactive) | > 100 µM (inactive) | 23.3 µM (inactive) | 33.1 µM (inactive) | 26.9 µM (inactive) | 34 µM (inactive) | 12.6 µM (inactive) | 52.4 µM (inactive) | 17.8 µM (inactive) | 36.1 µM (inactive) |  | > 100 µM (inactive) | 29 µM (inactive) | 29.8 µM (inactive)
5 | Cc1c(Cl)ccc2c1NC(=O)C2(O)CC(=O)c1cccc2ccccc12 (stereo not drawn) | > 100 µM (inactive) | > 100 µM (inactive) | 78.5 µM | 85.5 µM (inactive) | 41.9 µM (inactive) | > 100 µM (inactive) | > 100 µM (inactive) | 78.3 µM (inactive) | > 100 µM (inactive) | > 100 µM (inactive) | > 100 µM (inactive) | 69.5 µM (inactive) | 59.7 µM (inactive) | 28.9 µM (inactive) | 13.3 µM (inactive) | > 100 µM (inactive) | 98.9 µM (inactive)
6 | O=C1CCC[C@]2(CCCC(=O)N2)C1 | > 100 µM (inactive) | > 100 µM (inactive) | > 100 µM | > 100 µM (inactive) | > 100 µM (inactive) | > 100 µM (inactive) | > 100 µM (inactive) | > 100 µM (inactive) | > 100 µM (inactive) | > 100 µM (inactive) | > 100 µM (inactive) | > 100 µM (inactive) | > 100 µM (inactive) | > 100 µM (inactive) | > 100 µM (inactive) | > 100 µM (inactive) | > 100 µM (inactive)
7 | O=C(OCN1C(=O)C2C3C=CC(C2C1=O)C1C2C(=O)N(COC(=O)C4CCCN4)C(=O)C2C31)C1CCCN1 (stereo not drawn) | 59.8 µM (inactive) | > 100 µM (inactive) | 25 µM | > 67.9 µM (inactive) | > 94 µM (inactive) | > 100 µM (inactive) | > 100 µM (inactive) | > 100 µM (inactive) | > 51.3 µM (inactive) | 47.8 µM (inactive) | > 31.6 µM (inactive) | > 100 µM (inactive) | 22.6 µM (inactive) | 24.8 µM (inactive) | 22.1 µM (inactive) | > 100 µM (inactive) | > 79.4 µM (inactive)
8 | CC(=O)O[C@]12CCCCC1C1(O)C(O)CCCCC12 (stereo partly drawn) | > 100 µM (inactive) | > 100 µM (inactive) | > 100 µM | > 100 µM (inactive) | > 100 µM (inactive) | > 100 µM (inactive) | > 100 µM (inactive) |  | > 100 µM (inactive) |  | > 100 µM (inactive) |  | > 100 µM (inactive) | > 100 µM (inactive) | > 100 µM (inactive) | > 100 µM (inactive) | > 100 µM (inactive)
9 | O=c1c2cccnc2ncn1CCCN1CCCC1 | 97.3 µM (inactive) | > 100 µM (inactive) |  | > 100 µM (inactive) | > 100 µM (inactive) |  | > 100 µM (inactive) | > 100 µM (inactive) | > 100 µM (inactive) | > 100 µM (inactive) | > 100 µM (inactive) |  | > 100 µM (inactive) |  |  | 91 µM (inactive) | 
10 | CCc1cccc(C)c1NC(=O)CC(=O)NNC(N)=S | > 100 µM (inactive) | > 100 µM (inactive) | > 100 µM | > 100 µM (inactive) | > 100 µM (inactive) | > 100 µM (inactive) | > 100 µM (inactive) | > 100 µM (inactive) | > 100 µM (inactive) |  |  |  | > 100 µM (inactive) | > 100 µM (inactive) | > 100 µM (inactive) | > 100 µM (inactive) | > 100 µM (inactive)
11 | CC(=O)O[C@]12CCCCCC1C1(O)C(O)CCC[C@H]12 (stereo partly drawn) | > 100 µM (inactive) | > 100 µM (inactive) | > 100 µM | > 100 µM (inactive) | > 100 µM (inactive) | > 100 µM (inactive) | > 100 µM (inactive) |  | > 100 µM (inactive) |  | > 100 µM (inactive) |  | > 100 µM (inactive) | > 100 µM (inactive) | > 100 µM (inactive) | > 100 µM (inactive) | > 100 µM (inactive)
12 | O=C(O)CNc1cc(-c2ccccc2)nc(NCC(=O)O)n1 | > 100 µM (inactive) | > 100 µM (inactive) | > 100 µM | > 100 µM (inactive) | > 100 µM (inactive) | > 100 µM (inactive) | > 100 µM (inactive) | > 100 µM (inactive) |  | > 100 µM (inactive) | > 100 µM (inactive) |  | > 100 µM (inactive) | > 100 µM (inactive) | > 100 µM (inactive) | > 100 µM (inactive) | > 100 µM (inactive)
13 | O=C1NC(=O)C(C(=O)C(=O)Nc2ccc(Cl)cc2Cl)C(=O)N1 | > 100 µM (inactive) | > 100 µM (inactive) | > 100 µM | > 100 µM (inactive) | 93.1 µM (inactive) | > 100 µM (inactive) |  | > 100 µM (inactive) |  | > 10 µM (inactive) | > 100 µM (inactive) | > 100 µM (inactive) | > 100 µM (inactive) | > 100 µM (inactive) | > 100 µM (inactive) |  | > 100 µM (inactive)
14 | CCC1(N=[N+]=[N-])C(=O)c2ccccc2N(C)C1=O (stereo not drawn) | > 100 µM (inactive) | > 100 µM (inactive) | > 100 µM | > 100 µM (inactive) | > 100 µM (inactive) | > 100 µM (inactive) | > 100 µM (inactive) | > 100 µM (inactive) | > 100 µM (inactive) | > 100 µM (inactive) | > 100 µM (inactive) | > 100 µM (inactive) | > 100 µM (inactive) |  | > 100 µM (inactive) |  | > 100 µM (inactive)
15 | O=C1CCC(c2ccccc2)C(O)(C(=O)O)C1 (stereo not drawn) | > 100 µM (inactive) | > 100 µM (inactive) | > 100 µM | > 100 µM (inactive) | > 100 µM (inactive) | > 100 µM (inactive) | > 100 µM (inactive) | > 100 µM (inactive) | > 100 µM (inactive) | > 100 µM (inactive) | > 100 µM (inactive) | > 100 µM (inactive) | > 100 µM (inactive) | > 100 µM (inactive) | > 100 µM (inactive) | > 100 µM (inactive) | > 100 µM (inactive)
16 | CNCC(=O)Nc1ccc2c(c1)C(=O)c1ccc(NC(=O)CNC)cc1C2=O | 2.37 µM (inactive) |  | 7.62 µM | 1.96 µM (inactive) | 0.767 µM (active) | 3.27 µM (inactive) | 13.4 µM (inactive) | 3.05 µM (inactive) |  | 3.1 µM (inactive) | 3.66 µM (inactive) | 14.9 µM (inactive) | 3.77 µM (inactive) |  |  | 7.57 µM (inactive) | 4.36 µM (inactive)
17 | CC1(Br)C(=O)NC(=O)N(C2CC(N=[N+]=[N-])C(CO)O2)C1N=[N+]=[N-] (stereo not drawn) | > 100 µM (inactive) | > 100 µM (inactive) | > 100 µM | > 100 µM (inactive) | > 100 µM (inactive) | 97.9 µM (inactive) | > 100 µM (inactive) | > 100 µM (inactive) | > 100 µM (inactive) | > 100 µM (inactive) | > 100 µM (inactive) | > 100 µM (inactive) | > 100 µM (inactive) | 92.5 µM (inactive) | > 100 µM (inactive) |  | > 100 µM (inactive)
18 | COc1ccc(/C=c2/sc3n(c2=O)NC2(CCC(C)CC2)NN=3)cc1 (stereo not drawn) | > 100 µM (inactive) | > 100 µM (inactive) |  | > 100 µM (inactive) | > 100 µM (inactive) | > 100 µM (inactive) | > 100 µM (inactive) | 60.8 µM (inactive) | > 100 µM (inactive) | > 100 µM (inactive) | > 100 µM (inactive) |  | > 100 µM (inactive) |  |  | > 100 µM (inactive) | 
19 | C=CC1=C(C)c2cc3[nH]c(cc4nc(cc5[nH]c(cc1n2)c(C)c5CCC(=O)N(CC)CC)C(CCC(=O)N(CC)CC)=C4C)c(C)c3C=C |  | > 100 µM (inactive) | > 100 µM | > 100 µM (inactive) | > 100 µM (inactive) | > 100 µM (inactive) | > 100 µM (inactive) | > 100 µM (inactive) |  | > 100 µM (inactive) | > 100 µM (inactive) |  | > 100 µM (inactive) |  | > 100 µM (inactive) |  | > 100 µM (inactive)
